Molecules are shown by their SMILES.

One data set concerns iPS cells. The experiment in a line: Growth of iPS cells in the presence of doxycycline (dose response). It counts as cell-based, human. As to conditions: FIG. 7B. On the procedure:
The media conditions to maintain human iPSCs have all been previously described (40). For passaging the cells Accutase (StemCell Technologies, Vancouver, BC) was used for 5 minutes at 37° C. and then stopped with iPSC media containing 10 μM Y-27632 (Selleckchem, Houston, Tex.) (41). The dissociated IPSCs were seeded on new plates with media containing Y-27632, and after 24 hours replaced with media alone. iPSC media was changed daily.
We also did a complete dose-response curve on the growth of iPS cells in the presence of doxycycline up to 30 μg/mL, with toxicity observed beginning at the 10 μg/mL level (FIG. 7B). Beyond effects on iPS cells, we further confirmed the ability of doxycycline to support the induction of iPSCs to endoderm. For this we performed immunohistochemical staining for markers of endoderm, including CXCR4, SOX17, FOXA2, and HNF16 (FIG. 2A and 2B). […] More importantly, the ML1 protocol allowed induction of complete monolayers of endoderm from virtually any iPSC. Compared to many of the other protocols that we tested for poorly differentiating iPS cell lines(6, 8), we could actually differentiate most lines using the ML1 protocol, but only a fraction of them using the other protocols. […]

Another data set relates to iPSC-derived hepatocytes. The experiment in a line: RNA Sequencing of iPSCs fully differentiated to hepatocytes. The conditions noted are these: 5 paired iPSCs, doxycycline during endoderm phase. It counts as cell-based, human. The method, then: Differentiation of Definitive Endoderm to hepatocytes (days 8-23). iPSC-derived human endoderm prepared as described herein was cultured continuously on Matrigel or split 1:2 onto Matrigel plates for hepatic differentiation. Definitive endoderm (DE) was cultured in Iscove's modified Dulbecco's medium (Gibco catalog #supplemented with Gem21 NeuroPlex without insulin (Gemini Bio-Products catalog #400-962), Glutagro, non-essential amino acids (1×, Gibco catalog #11-140-050), 0.3 mM monothioglycerol, 5 μg/mL human insulin (Sigma), and 100 nM dexamethasone. To induce hepatoblasts, cells were treated with FGF2 (10 ng/mL) and BMP4 (20 ng/mL) for 5 days. During this phase, cells can be passaged using accutase and split at least 2 to 4× to increase yield and quality of final product again onto Matrigel with the addition of 10 μM Y-27632 and 2 μM doxycycline to increase cell survival during accutase treatment and splitting. This phase and the next were grown at low oxygen (4-6%) and 5% CO2. […]
RNA isolation, Real-Time PCR analysis, and RNA Sequencing. […] Quantitative Real-Time PCR was performed using FastStart Universal SYBR Green, Roche Diagnostics (Indianapolis, IN). […] On average, 27,642,407 raw reads were obtained and mapped. Raw reads were subjected to quality control. Clean reads were analyzed by Gene Ontology analysis, KEGG pathway enrichment, and cluster analysis. […]

For the compound `C[C@H]1c2cccc(O)c2C(=O)C2=C(O)[C@]3(O)C(=O)C(C(N)=O)=C(O)[C@@H](N(C)C)[C@@H]3[C@@H](O)[C@@H]21` [doxycycline], in the data set with iPS cells, the “titration of doxycycline, outcome in words” value is “an optimal level of doxycycline and a toxic level”. Besides, in the data set on iPS cells (dose-response up to 30 μg/mL), the “concentration at which toxicity begins” value stood at 10000 ng/mL. Moreover, the “effect on final iPSC-derived hepatocytes (principal component analysis)” value in the data set on iPSC-derived hepatocytes is listed as “did not alter the final product”.

Values taken from patent publication US20230002736A1, “ENDODERM DIFFERENTIATION FROM PLURIPOTENT STEM CELL LINES” (priority 2019, published 2023).
